Measured values as given in PubChem BioAssay AID1963958 (Molecular Pharmacology Branch, DTP, NCI, 2024).

Tested on: MDA-MB-231 multicell spheroids, viability
Assay: Anticancer human tumor MDA-MB-231 cell line growth inhibition [PI3K];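 also: spheroids exposed to agents for seven days before reading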;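 as to viability, T/C: percent of vehicle control luminescence with DMSO treated spheroids as 100%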
Conditions: for IC50: curve of first compound; for viability, T/C: stronger effect = lower value
Outline: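 Spheroid viability read-out. Co-cultures contained the tumor line plus HUVEC and human MSCs. Each agent was paired with a PI3K inhibitor (inavolisib, alpelisib, duvelisib, copanlisib) across half-log dilutions starting at clinical Cmax, or at 10 microM when Cmax was unknown.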

[1] = second compound 0.0316 µM, first compound 0.0316 µM
[2] = second compound 0.0316 µM, first compound 0.1 µM
[3] = second compound 0.0316 µM, first compound 0.316 µM
[4] = second compound 0.0316 µM, first compound 1 µM
[5] = second compound 0.0316 µM, first compound 3.16 µM
[6] = second compound 0.0316 µM, first compound 10 µM
[7] = second compound 0.1 µM, first compound 0.0316 µM
[8] = second compound 0.1 µM, first compound 0.1 µM
[9] = second compound 0.1 µM, first compound 0.316 µM
[10] = second compound 0.1 µM, first compound 1 µM
[11] = second compound 0.1 µM, first compound 3.16 µM
[12] = second compound 0.1 µM, first compound 10 µM
[13] = second compound 0.316 µM, first compound 0.0316 µM
[14] = second compound 0.316 µM, first compound 0.1 µM
[15] = second compound 0.316 µM, first compound 0.316 µM
[16] = second compound 0.316 µM, first compound 1 µM
[17] = second compound 0.316 µM, first compound 3.16 µM
[18] = second compound 0.316 µM, first compound 10 µM
[19] = second compound 1 µM, first compound 0.0316 µM
[20] = second compound 1 µM, first compound 0.1 µM
[21] = second compound 1 µM, first compound 0.316 µM
[22] = second compound 1 µM, first compound 1 µM
[23] = second compound 1 µM, first compound 3.16 µM
[24] = second compound 1 µM, first compound 10 µM
[25] = second compound 3.16 µM, first compound 0.0316 µM
[26] = second compound 3.16 µM, first compound 0.1 µM
[27] = second compound 3.16 µM, first compound 0.316 µM
[28] = second compound 3.16 µM, first compound 1 µM
[29] = second compound 3.16 µM, first compound 3.16 µM
[30] = second compound 3.16 µM, first compound 10 µM
[31] = second compound 10 µM, first compound 0.0316 µM
[32] = second compound 10 µM, first compound 0.1 µM
[33] = second compound 10 µM, first compound 0.316 µM
[34] = second compound 10 µM, first compound 1 µM
[35] = second compound 10 µM, first compound 3.16 µM
[36] = second compound 10 µM, first compound 10 µM

For `CC1(C)CCC(CN2CCN(c3ccc(C(=O)NS(=O)(=O)c4ccc(NCC5CCOCC5)c([N+](=O)[O-])c4)c(Oc4cnc5[nH]ccc5c4)c3)CC2)=C(c2ccc(Cl)cc2)C1` + CC(Nc1ncnc2nc[nH]c12)c1cc2cccc(Cl)c2c(=O)n1-c1ccccc1, the IC50 (second compound 0.0316 µM) was 7.72 µM, the IC50 (second compound 0.1 µM) was 6.9 µM and the IC50 (second compound 0.316 µM) was 7.92 µM. For the same compound, the IC50 (second compound 1 µM) was 6.18 µM, the IC50 (second compound 3.16 µM) was 5.26 µM and the IC50 (second compound 10 µM) was 3.33 µM. For the same compound, the viability, T/C [1] was 104%, the viability, T/C [2] was 96.9% and the viability, T/C [3] was 110%. For the same compound, the viability, T/C [4] was 102%, the viability, T/C [5] was 112% and the viability, T/C [6] was 33.9%. It also gave a viability, T/C [7] of 92.5%, a viability, T/C [8] of 92.1% and a viability, T/C [9] of 100%. For the same compound, the viability, T/C [10] was 107%, the viability, T/C [11] was 103% and the viability, T/C [12] was 26.6%. It also gave a viability, T/C [13] of 90.5%, a viability, T/C [14] of 99% and a viability, T/C [15] of 105%. It also gave a viability, T/C [16] of 98.2%, a viability, T/C [17] of 108% and a viability, T/C [18] of 37.1%. It also gave a viability, T/C [19] of 85.9%, a viability, T/C [20] of 86.6% and a viability, T/C [21] of 75.6%. The viability, T/C [22] was 92.4%, the viability, T/C [23] was 91.8% and the viability, T/C [24] was 23.7%. For the same compound, the viability, T/C [25] was 70%, the viability, T/C [26] was 64.7% and the viability, T/C [27] was 65.3%. For the same compound, the viability, T/C [28] was 66.6%, the viability, T/C [29] was 72.2% and the viability, T/C [30] was 27.7%. It also gave a viability, T/C [31] of 50.6%, a viability, T/C [32] of 50.4% and a viability, T/C [33] of 49.6%. For the same compound, the viability, T/C [34] was 50.5%, the viability, T/C [35] was 53.7% and the viability, T/C [36] was 28.4%.

With `C[C@@H](NC(=O)c1ncnc(N)c1Cl)c1ncc(C(=O)Nc2cc(C(F)(F)F)c(Cl)cn2)s1` + CC(Nc1ncnc2nc[nH]c12)c1cc2cccc(Cl)c2c(=O)n1-c1ccccc1 the IC50 (second compound 0.0316 µM) was > 10 µM, the IC50 (second compound 0.1 µM) was > 10 µM and the IC50 (second compound 0.316 µM) was > 10 µM. The IC50 (second compound 1 µM) was 8.16 µM, the IC50 (second compound 3.16 µM) was 1.38 µM and the IC50 (second compound 10 µM) was 0.334 µM. It also gave a viability, T/C [1] of 142%, a viability, T/C [2] of 120% and a viability, T/C [3] of 110%. It also gave a viability, T/C [4] of 85.6%, a viability, T/C [5] of 75.6% and a viability, T/C [6] of 62.6%. For the same compound, the viability, T/C [7] was 140%, the viability, T/C [8] was 119% and the viability, T/C [9] was 106%. For the same compound, the viability, T/C [10] was 89.9%, the viability, T/C [11] was 72.7% and the viability, T/C [12] was 62.4%. The viability, T/C [13] was 125%, the viability, T/C [14] was 124% and the viability, T/C [15] was 106%. For the same compound, the viability, T/C [16] was 80.5%, the viability, T/C [17] was 68% and the viability, T/C [18] was 55.9%. It also gave a viability, T/C [19] of 114%, a viability, T/C [20] of 101% and a viability, T/C [21] of 79.1%. The viability, T/C [22] was 73.8%, the viability, T/C [23] was 60.1% and the viability, T/C [24] was 46.8%. The viability, T/C [25] was 95.5%, the viability, T/C [26] was 79.5% and the viability, T/C [27] was 60.6%. It also gave a viability, T/C [28] of 51.7%, a viability, T/C [29] of 47.7% and a viability, T/C [30] of 37.3%. For the same compound, the viability, T/C [31] was 72%, the viability, T/C [32] was 58.6% and the viability, T/C [33] was 47.8%. The viability, T/C [34] was 45.5%, the viability, T/C [35] was 33.6% and the viability, T/C [36] was 26.1%.

For `Cn1ncnc1[C@H]1c2n[nH]c(=O)c3cc(F)cc(c23)N[C@@H]1c1ccc(F)cc1` + CC(Nc1ncnc2nc[nH]c12)c1cc2cccc(Cl)c2c(=O)n1-c1ccccc1, the IC50 (second compound 0.0316 µM) was > 0.1 µM, the IC50 (second compound 0.1 µM) was > 0.1 µM and the IC50 (second compound 0.316 µM) was > 0.1 µM. For the same compound, the IC50 (second compound 1 µM) was > 0.1 µM, the IC50 (second compound 3.16 µM) was > 0.1 µM and the IC50 (second compound 10 µM) was < 0.000316 µM. The viability, T/C (second compound 0.0316 µM, first compound 0.000316 µM) was 106%, the viability, T/C (second compound 0.0316 µM, first compound 0.001 µM) was 108% and the viability, T/C (second compound 0.0316 µM, first compound 0.00316 µM) was 97.6%. It also gave a viability, T/C (second compound 0.0316 µM, first compound 0.01 µM) of 92.5%, a viability, T/C [1] of 98.9% and a viability, T/C [2] of 77.1%. It also gave a viability, T/C (second compound 0.1 µM, first compound 0.000316 µM) of 99.7%, a viability, T/C (second compound 0.1 µM, first compound 0.001 µM) of 99.7% and a viability, T/C (second compound 0.1 µM, first compound 0.00316 µM) of 103%. The viability, T/C (second compound 0.1 µM, first compound 0.01 µM) was 94%, the viability, T/C [7] was 92% and the viability, T/C [8] was 79.2%. The viability, T/C (second compound 0.316 µM, first compound 0.000316 µM) was 94.7%, the viability, T/C (second compound 0.316 µM, first compound 0.001 µM) was 103% and the viability, T/C (second compound 0.316 µM, first compound 0.00316 µM) was 86.8%. It also gave a viability, T/C (second compound 0.316 µM, first compound 0.01 µM) of 93.3%, a viability, T/C [13] of 86.9% and a viability, T/C [14] of 76.1%. For the same compound, the viability, T/C (second compound 1 µM, first compound 0.000316 µM) was 87.2%, the viability, T/C (second compound 1 µM, first compound 0.001 µM) was 81.9% and the viability, T/C (second compound 1 µM, first compound 0.00316 µM) was 80.8%. It also gave a viability, T/C (second compound 1 µM, first compound 0.01 µM) of 78%, a viability, T/C [19] of 73.4% and a viability, T/C [20] of 65%. The viability, T/C (second compound 3.16 µM, first compound 0.000316 µM) was 63.7%, the viability, T/C (second compound 3.16 µM, first compound 0.001 µM) was 60.9% and the viability, T/C (second compound 3.16 µM, first compound 0.00316 µM) was 54.1%. It also gave a viability, T/C (second compound 3.16 µM, first compound 0.01 µM) of 60.6%, a viability, T/C [25] of 49.8% and a viability, T/C [26] of 52.3%. It also gave a viability, T/C (second compound 10 µM, first compound 0.000316 µM) of 48.9%, a viability, T/C (second compound 10 µM, first compound 0.001 µM) of 47.6% and a viability, T/C (second compound 10 µM, first compound 0.00316 µM) of 46.8%. For the same compound, the viability, T/C (second compound 10 µM, first compound 0.01 µM) was 46.4%, the viability, T/C [31] was 46% and the viability, T/C [32] was 38.8%.
